Measurements taken from patent US10781211B2, “Spirocycle compounds and methods of making and using same” (Lundbeck La Jolla Research Center, Inc., priority 2016, dated 2020).

Key:
Format in all cases: in vivo
Details in all cases: 5 mg/kg oral gavage
MAGL = MAGL (Mus musculus (Mouse), UniProt O35678); assay: Mouse brain proteomes from inhibitor treated mice (oral gavage, sacrifice 4 h after administration, ABPP analysis)
Procedure, shortened: (§1)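 Mice (wild-type C57Bl/6J) receive inhibitor by oral gavage, e.g. in PEG400/Ethanol/PBS (7/2/1). Each animal is killed 4 h later. Brain proteomes are prepared and analyzed by ABPP, giving % inhibition at 5 mg/kg.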

FAAH = FAAH (Mus musculus (Mouse), UniProt O08914); assay: Mouse brain proteomes from inhibitor treated mice (oral gavage, sacrifice 4 h after administration, ABPP analysis), FAAH
Procedure, shortened: as §1

ABHD6 = ABHD6 (Mus musculus (Mouse), UniProt Q8R2Y0); assay: Mouse brain proteomes from inhibitor treated mice (oral gavage, sacrifice 4 h after administration, ABPP analysis), ABHD6
Procedure, shortened: as §1

Sequence of MAGL (O35678 whole entry): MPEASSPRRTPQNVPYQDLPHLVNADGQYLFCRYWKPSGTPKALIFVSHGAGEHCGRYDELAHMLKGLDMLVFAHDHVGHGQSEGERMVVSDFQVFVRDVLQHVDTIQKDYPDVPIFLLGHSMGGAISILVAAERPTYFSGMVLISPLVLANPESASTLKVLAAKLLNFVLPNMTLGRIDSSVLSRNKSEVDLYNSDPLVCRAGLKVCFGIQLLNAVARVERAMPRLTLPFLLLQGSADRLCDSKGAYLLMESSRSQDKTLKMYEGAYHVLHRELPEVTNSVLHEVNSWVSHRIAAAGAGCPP
Sequence of ABHD6 (Q8R2Y0 whole entry): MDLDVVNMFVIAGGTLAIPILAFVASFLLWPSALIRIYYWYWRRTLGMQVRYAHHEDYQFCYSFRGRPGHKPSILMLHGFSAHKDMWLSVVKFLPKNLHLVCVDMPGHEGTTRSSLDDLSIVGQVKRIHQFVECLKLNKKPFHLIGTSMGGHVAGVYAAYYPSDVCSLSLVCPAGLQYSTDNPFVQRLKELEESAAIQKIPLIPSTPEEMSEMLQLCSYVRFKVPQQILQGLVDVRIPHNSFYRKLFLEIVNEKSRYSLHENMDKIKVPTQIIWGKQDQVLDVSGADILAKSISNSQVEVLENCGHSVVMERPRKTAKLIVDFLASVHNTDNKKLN
Sequence of FAAH (O08914 whole entry): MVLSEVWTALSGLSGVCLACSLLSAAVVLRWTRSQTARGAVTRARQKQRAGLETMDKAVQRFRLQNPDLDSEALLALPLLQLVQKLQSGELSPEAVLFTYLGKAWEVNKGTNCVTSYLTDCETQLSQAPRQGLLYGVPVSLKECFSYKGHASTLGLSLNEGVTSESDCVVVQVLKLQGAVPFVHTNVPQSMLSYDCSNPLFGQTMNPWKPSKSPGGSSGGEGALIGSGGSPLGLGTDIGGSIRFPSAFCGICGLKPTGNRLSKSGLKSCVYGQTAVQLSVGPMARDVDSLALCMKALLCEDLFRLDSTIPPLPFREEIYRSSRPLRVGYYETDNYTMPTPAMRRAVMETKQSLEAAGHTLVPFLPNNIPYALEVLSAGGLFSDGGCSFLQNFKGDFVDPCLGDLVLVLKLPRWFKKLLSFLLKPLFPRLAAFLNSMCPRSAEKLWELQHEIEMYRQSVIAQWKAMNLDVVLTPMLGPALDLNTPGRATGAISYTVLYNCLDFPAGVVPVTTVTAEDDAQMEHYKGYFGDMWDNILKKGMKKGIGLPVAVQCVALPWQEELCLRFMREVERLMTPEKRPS

MAGL % Inh 5 mg/kg (mouse) (MAGL) | FAAH % Inh 5 mg/kg (mouse) (FAAH) | ABHD6 % Inh 5 mg/kg (mouse) (ABHD6) | SMILES
# (# is < 25%) | # (# is < 25%) | # (# is < 25%) | CS(=O)(=O)N1CCN(c2cc(C(F)(F)F)ccc2CN2CCCC23CCN(C(=O)OC(C(F)(F)F)C(F)(F)F)CC3)CC1 [Example 89, 1,1,1,3,3,3-Hexafluoropropan-2-yl 1-(2-(4-(methylsulfonyl)piperazin-1-yl)-4-(trifluoromethyl)benzyl)-1,8-diazaspiro[4.5]decane-8-carboxylate]
### (### is ≥ 75%) | # (# is < 25%) | # (# is < 25%) | O=C(OC(C(F)(F)F)C(F)(F)F)N1CCC2(CCCN2Cc2ccc(C(F)(F)F)cc2N2CCC(F)CC2)CC1 [Example 91, 1,1,1,3,3,3-Hexafluoropropan-2-yl 1-(2-(4-fluoropiperidin-1-yl)-4-(trifluoromethyl)benzyl)-1,8-diazaspiro[4.5]decane-8-carboxylate]
### (### is ≥ 75%) | # (# is < 25%) | # (# is < 25%) | CC(=O)NC1CCN(c2cc(C(F)(F)F)ccc2CN2CCCC23CCN(C(=O)OC(C(F)(F)F)C(F)(F)F)CC3)CC1 [Example 93, 1,1,1,3,3,3-Hexafluoropropan-2-yl 1-(2-(4-acetamidopiperidin-1-yl)-4-(trifluoromethyl)benzyl)-1,8-diazaspiro[4.5]decane-8-carboxylate]
# (# is < 25%) | # (# is < 25%) | # (# is < 25%) | CS(=O)(=O)NC1CCN(c2cc(C(F)(F)F)ccc2CN2CCCC23CCN(C(=O)OC(C(F)(F)F)C(F)(F)F)CC3)CC1 [Example 94, 1,1,1,3,3,3-Hexafluoropropan-2-yl 1-(2-(4-(methylsulfonamido)piperidin-1-yl)-4-(trifluoromethyl)benzyl)-1,8-diazaspiro[4.5]decane-8-carboxylate]
### (### is ≥ 75%) | # (# is < 25%) | # (# is < 25%) | CC(=O)N1CCN(c2cc(Cl)ccc2CN2CCCC23CCN(C(=O)OC(C(F)(F)F)C(F)(F)F)CC3)CC1 [Example 99, 1,1,1,3,3,3-Hexafluoropropan-2-yl 1-(2-(4-acetylpiperazin-1-yl)-4-chlorobenzyl)-1,8-diazaspiro[4.5]decane-8-carboxylate]
### (### is ≥ 75%) | # (# is < 25%) | # (# is < 25%) | O=C(OC(C(F)(F)F)C(F)(F)F)N1CCC2(CCCN2Cc2ccc(Cl)cc2N2CCC(F)CC2)CC1 [Example 102, 1,1,1,3,3,3-Hexafluoropropan-2-yl 1-(4-chloro-2-(4-fluoropiperidin-1-yl)benzyl)-1,8-diazaspiro[4.5]decane-8-carboxylate]
# (# is < 25%) | # (# is < 25%) | # (# is < 25%) | CS(=O)(=O)NC1CCN(c2cc(Cl)ccc2CN2CCCC23CCN(C(=O)OC(C(F)(F)F)C(F)(F)F)CC3)CC1 [Example 105, 1,1,1,3,3,3-Hexafluoropropan-2-yl 1-(4-chloro-2-(4-(methylsulfonamido)piperidin-1-yl)benzyl)-1,8-diazaspiro[4.5]decane-8-carboxylate]
### (### is ≥ 75%) | # (# is < 25%) | # (# is < 25%) | Cc1ccc(CN2CCCC23CCN(C(=O)OC(C(F)(F)F)C(F)(F)F)CC3)cc1Cl [Example 125, 1,1,1,3,3,3-Hexafluoropropan-2-yl 1-(3-chloro-4-methylbenzyl)-1,8-diazaspiro[4.5]decane-8-carboxylate]
### (### is ≥ 75%) | # (# is < 25%) | # (# is < 25%) | O=C(OC(C(F)(F)F)C(F)(F)F)N1CCC2(CCCN2Cc2ccc(Cl)c(N3CCCC3)c2)CC1 [Example 132, 1,1,1,3,3,3-Hexafluoropropan-2-yl 1-(4-chloro-3-(pyrrolidin-1-yl)benzyl)-1,8-diazaspiro[4.5]decane-8-carboxylate]

The remaining lines, values behind:

SMILES | MAGL % Inh 5 mg/kg (mouse) (MAGL) | FAAH % Inh 5 mg/kg (mouse) (FAAH) | ABHD6 % Inh 5 mg/kg (mouse) (ABHD6)
O=C(OC(C(F)(F)F)C(F)(F)F)N1CCC2(CCCN2Cc2ccc(C(F)(F)F)cc2N2CCC2)CC1 [Example 96, 1,1,1,3,3,3-Hexafluoropropan-2-yl 1-(2-(azetidin-1-yl)-4-(trifluoromethyl)benzyl)-1,8-diazaspiro[4.5]decane-8-carboxylate] | ### (### is ≥ 75%) | # (# is < 25%) | # (# is < 25%)
O=C(OC(C(F)(F)F)C(F)(F)F)N1CCC2(CCCN2Cc2ccc(C(F)(F)F)cc2N2CC3COCC3C2)CC1 (stereo not drawn) [Example 97, 1,1,1,3,3,3-Hexafluoropropan-2-yl 1-(2-(tetrahydro-1H-furo[3,4-c]pyrrol-5(3H)-yl)-4-(trifluoromethyl)benzyl)-1,8-diazaspiro[4.5]decane-8-carboxylate] | ### (### is ≥ 75%) | # (# is < 25%) | # (# is < 25%)
CS(=O)(=O)N1CCN(c2cc(Cl)ccc2CN2CCCC23CCN(C(=O)OC(C(F)(F)F)C(F)(F)F)CC3)CC1 [Example 100, 1,1,1,3,3,3-Hexafluoropropan-2-yl 1-(4-chloro-2-(4-(methylsulfonyl)piperazin-1-yl)benzyl)-1,8-diazaspiro[4.5]decane-8-carboxylate] | ### (### is ≥ 75%) | # (# is < 25%) | # (# is < 25%)
O=C(OC(C(F)(F)F)C(F)(F)F)N1CCC2(CCCN2Cc2ccc(Cl)cc2N2CCC(F)(F)CC2)CC1 [Example 101, 1,1,1,3,3,3-Hexafluoropropan-2-yl 1-(4-chloro-2-(4,4-difluoropiperidin-1-yl)benzyl)-1,8-diazaspiro[4.5]decane-8-carboxylate] | ### (### is ≥ 75%) | # (# is < 25%) | # (# is < 25%)
O=C(OC(C(F)(F)F)C(F)(F)F)N1CCC2(CCCN2Cc2ccc(Cl)cc2N2CC3COCC3C2)CC1 (stereo not drawn) [Example 108, 1,1,1,3,3,3-Hexafluoropropan-2-yl 1-(4-chloro-2-(tetrahydro-1H-furo[3,4-c]pyrrol-5(3H)-yl)benzyl)-1,8-diazaspiro[4.5]decane-8-carboxylate] | ### (### is ≥ 75%) | # (# is < 25%) | # (# is < 25%)
O=C(O)C1CCN(c2cc(C(F)(F)F)ccc2CN2CCC3(CCN(C(=O)OC(C(F)(F)F)C(F)(F)F)CC3)C2)CC1 [Example 119, 1-(2-((8-(((1,1,1,3,3,3-Hexafluoropropan-2-yl)oxy)carbonyl)-2,8-diazaspiro[4.5]decan-2-yl)methyl)-5-(trifluoromethyl)phenyl)piperidine-4-carboxylic acid] | ### (### is ≥ 75%) | # (# is < 25%) | ### (### is ≥ 75%)
O=C(O)C1CCN(c2cc(Cl)ccc2CN2CCCC23CCN(C(=O)OC(C(F)(F)F)C(F)(F)F)CC3)CC1 [Example 120, 1-(5-Chloro-2-((8-(((1,1,1,3,3,3-hexafluoropropan-2-yl)oxy)carbonyl)-1,8-diazaspiro[4.5]decan-1-yl)methyl)phenyl)piperidine-4-carboxylic acid] | ### (### is ≥ 75%) | # (# is < 25%) | # (# is < 25%)
O=C(O)C1CCN(c2cc(C(F)(F)F)ccc2CN2CCCC23CCN(C(=O)OC(C(F)(F)F)C(F)(F)F)CC3)CC1 [Example 121, 1-(2-((8-(((1,1,1,3,3,3-Hexafluoropropan-2-yl)oxy)carbonyl)-1,8-diazaspiro[4.5]decan-1-yl)methyl)-5-(trifluoromethyl)phenyl)piperidine-4-carboxylic acid] | ### (### is ≥ 75%) | # (# is < 25%) | # (# is < 25%)
Cc1cc(CN2CCCC23CCN(C(=O)OC(C(F)(F)F)C(F)(F)F)CC3)ccc1Cl [Example 124, 1,1,1,3,3,3-Hexafluoropropan-2-yl 1-(4-chloro-3-methylbenzyl)-1,8-diazaspiro[4.5]decane-8-carboxylate] | ### (### is ≥ 75%) | # (# is < 25%) | # (# is < 25%)
O=C(OC(C(F)(F)F)C(F)(F)F)N1CCC2(CCCN2Cc2ccc(N3CCCC3)c(Cl)c2)CC1 [Example 128, 1,1,1,3,3,3-Hexafluoropropan-2-yl 1-(3-chloro-4-(pyrrolidin-1-yl)benzyl)-1,8-diazaspiro[4.5]decane-8-carboxylate] | ### (### is ≥ 75%) | # (# is < 25%) | # (# is < 25%)
O=C(OC(C(F)(F)F)C(F)(F)F)N1CCC2(CCCN2Cc2ccc(N3CCOCC3)c(C(F)(F)F)c2)CC1 [Example 129, 1,1,1,3,3,3-Hexafluoropropan-2-yl 1-(4-morpholino-3-(trifluoromethyl)benzyl)-1,8-diazaspiro[4.5]decane-8-carboxylate] | ### (### is ≥ 75%) | # (# is < 25%) | # (# is < 25%)
O=C(OC(C(F)(F)F)C(F)(F)F)N1CCC2(CCCN2Cc2ccc(N3CCCC3)c(C(F)(F)F)c2)CC1 [Example 130, 1,1,1,3,3,3-Hexafluoropropan-2-yl 1-(4-(pyrrolidin-1-yl)-3-(trifluoromethyl)benzyl)-1,8-diazaspiro[4.5]decane-8-carboxylate] | ### (### is ≥ 75%) | # (# is < 25%) | # (# is < 25%)
